Measured values from patent US9493466B2, “Treatment of cancer with TOR kinase inhibitors” (Signal Pharmaceuticals, LLC, priority 2011, dated 2016).

Tests used:
NET = assay: Phase 1/2 study Part B: tumor response, NET; assay type: in vivo, human
Text: In Part B, subjects may start Compound 1 at the MTD and/or a lower dose level based on safety, PK and PD data from Part A. Approximately 150 subjects will be treated and evaluated for safety and preliminary antitumor activity after every two cycles of therapy. Tumor types include non-small cell lung cancer (NSCLC), glioblastoma multiforme (GBM), hepatocellular carcinoma (HCC), gastrointestinal neuroendocrine tumor of non-pancreatic origin (NET), diffuse large B-cell lymphoma (DLBCL), multiple myeloma (MM), and hormone receptor positive breast cancer (HRPBC). Up to 20 subjects will be enrolled in each tumor type.
Subjects will be evaluated for efficacy every 2 cycles through cycle 6 and every 3 cycles thereafter. The primary efficacy variable is response. Tumor assessments, including imaging (CT, MRI and/or PET) of the chest and abdomen and other sites as appropriate, will be performed during Screening. Subjects with brain lesions will also have brain scans at Screening and during follow-up tumor assessments. After Screening, tumor assessments (for all tumors except multiple myeloma) will be performed on completion of Cycles 2, 4 and 6 (i.e., on Cycles 3, 5 and 7/Day 1±7 days) and then every 3 months thereafter (e.g., Cycle 10 and 13/Day 1±7 days). Tumor assessment (for multiple myeloma and only NHL/DLBCL with known or suspected marrow involvement) (bone marrow aspiration and biopsy, with PD biomarker analysis, cytogenetic analysis if abnormally present at Screening) will be performed on completion of Cycles 4, 8, 12 and 16 only (i.e., on Cycles 5, 9, 13 and 17/Day 1±7 days). Cytogenetics need not be repeated if normal at Screening. Tumor response will be based on Response Evaluation Criteria in Solid Tumors (RECIST 1.1), International Workshop Criteria (IWC) for NHL/DLBCL or International Uniform Response Criteria (IURC) for Multiple Myeloma, and RANO for GBM, using the post resection MRI scan as the baseline. Given the difficulty in assessing tumor response following salvage surgery, the primary efficacy endpoint for GBM will be the proportion of subjects progression-free at 6 months from Day 1 relative to efficacy evaluable subjects in the GBM type. Subjects will be evaluated for tumor response on completion of Cycle 2, 4, 6, and so on. A descriptive analysis of evidence of anti-tumor activity will be provided based on clinical and radiographic assessments by the investigator, which includes assessment of target lesion, non-target lesion, new lesion and overall response.
For Part B, efficacy variables to be analyzed include tumor response at the end of treatment, the proportion of subject alive and progression-free, and duration of response. […]

PLC-PRF-5 = assay: Growth inhibition assay for HCC lines; assay type: cell-based; details: PLC-PRF-5, 96 hours, DMEM + 10% FBS
Experimental: (§1) Growth Inhibition Assay for HCC and NHL Lines. The seeding density for each cell line was optimized to ensure assay linearity in 384-well plates.
(§2) Compound 1 was dissolved in dimethyl sulfoxide (DMSO) to prepare a 10 mM stock solution. A serial titration was performed to produce a working concentration range of […] to 10 mM. Aliquots to produce final concentrations of 1.5 nM to 10 μM were spotted via an acoustic dispenser (EDC ATS-100) into an empty 384-well plate. Compound 1 was spotted in a 10-point serial dilution fashion (3-fold dilution) in duplicate within the plate. The DMSO concentration was kept constant for a final assay concentration of 0.1% DMSO. Plates were replicated for use with different cell lines and testing periods. After compound plate replication, all plates were sealed (Agilent ThermoLoc) and stored at −20° C. for up to 1 month. […] When ready for testing, plates were removed from the freezer, thawed, and unsealed just prior to the addition of the test cells. Prior to testing, cells were grown and expanded in culture flasks to provide sufficient amounts of starting material. Cells were then diluted to the appropriate densities and added directly to the compound-spotted 384-well plates. Cells were allowed to grow for 96 hours at 37° C./5% CO2. At the time when compound was added (t0), initial cell number was assessed via a viability assay (Cell Titer-Glo) by quantifying the level of luminescence generated by ATP present in viable cells. After 96 hours, cell viability of compound-treated cells was assessed via Cell Titer-Glo and luminescence measurement. Cell lines were assayed for growth inhibition by Compound 1 in at least 3 independent tests. A control cell line (the lung tumor cell line, A549) was included in each of the assays. The compound response against this control cell line was monitored closely to enable comparison of the data generated through the assay period. All data were normalized and presented as a percentage of the DMSO-treated cells. Results were then expressed as a GI50 value. The GI50 value corrects for the cell count at time zero. In addition, the IC50 value of Compound 1 for each cell line was calculated.

SNU-475 = assay: Growth inhibition assay for HCC lines; assay type: cell-based; details: SNU-475, 96 hours, RPMI 1640 + 10% FBS
Experimental: as §1, §2

SNU-423 = assay: Growth inhibition assay for HCC lines; assay type: cell-based; details: SNU-423, 96 hours, RPMI 1640 + 10% FBS
Experimental: as §1, §2

SNU-449 = assay: Growth inhibition assay for HCC lines; assay type: cell-based; details: SNU-449, 96 hours, RPMI 1640 + 10% FBS
Experimental: as §1, §2

HuH-7 = assay: Growth inhibition assay for HCC lines; assay type: cell-based; details: HuH-7, 96 hours, DMEM + 10% FBS
Experimental: as §1, §2

SNU-398 = assay: Growth inhibition assay for HCC lines; assay type: cell-based; details: SNU-398, 96 hours, RPMI 1640 + 10% FBS
Experimental: as §1, §2

SNU-387 = assay: Growth inhibition assay for HCC lines; assay type: cell-based; details: SNU-387, 96 hours, RPMI 1640 + 10% FBS
Experimental: as §1, §2

SK-HEP-1 = assay: Growth inhibition assay for HCC lines; assay type: cell-based; details: SK-HEP-1, 96 hours, DMEM + 10% FBS
Experimental: as §1, §2

SNU-182 = assay: Growth inhibition assay for HCC lines; assay type: cell-based; details: SNU-182, 96 hours, RPMI 1640 + 10% FBS
Experimental: as §1, §2

Hep3B = assay: Growth inhibition assay for HCC lines; assay type: cell-based; details: 96 hours, DMEM + 10% FBS
Experimental: as §1, §2

HepG2 = assay: Growth inhibition assay for HCC lines; assay type: cell-based; details: HepG2, 96 hours, DMEM + 10% FBS
Experimental: as §1, §2

CO[C@H]1CC[C@H](N2C(=O)CNc3ncc(-c4ccc(C(C)(C)O)nc4)nc32)CC1 [Compound 1, 7-(6-(2-hydroxypropan-2-yl)pyridin-3-yl)-1-((1r,4r)-4-methoxycyclohexyl)-3,4-dihydropyrazino-[2,3-b]pyrazin-2(1H)-one]
tumor metabolic activity by PET imaging (NET; majority of subjects): reductions in tumor metabolic activity
patients meeting Stable Disease (RECIST 1.1) (NET; patients with sufficient follow up): Six patients
endocrine hormone markers (chromogranin, gastrin, serotonin, glucagon) (NET; some patients): reductions
carcinoid syndrome-related symptoms (NET; some patients with refractory baseline symptoms): improvements
GI50 (PLC-PRF-5): 310 ± 70 nM
IC50 (PLC-PRF-5): 430 ± 70 nM
GI50 (SNU-475): 460 ± 90 nM
IC50 (SNU-475): 690 ± 140 nM
GI50 (SNU-423): 300 ± 50 nM
IC50 (SNU-423): 480 ± 60 nM
GI50 (SNU-449): 370 ± 70 nM
IC50 (SNU-449): 480 ± 110 nM
GI50 (HuH-7): 70 ± 30 nM
IC50 (HuH-7): 100 ± 40 nM
GI50 (SNU-398): 280 ± 60 nM
IC50 (SNU-398): 290 ± 50 nM
GI50 (SNU-387): 1260 ± 470 nM
IC50 (SNU-387): 2470 ± 930 nM
GI50 (SK-HEP-1): 270 ± 40 nM
IC50 (SK-HEP-1): 330 ± 70 nM
GI50 (SNU-182): 80 ± 30 nM
IC50 (SNU-182): 260 ± 100 nM
GI50 (Hep3B): 260 ± 70 nM
IC50 (Hep3B): 340 ± 110 nM
GI50 (HepG2): 240 ± 60 nM
IC50 (HepG2): 320 ± 130 nM
